Source: US10222368B2 (priority 2012, dated 2019)

Target: T1, mu opiate receptor (MOR) (Rattus norvegicus, UniProt P33535)
T1 construct: from tissue; host or cells: striatal tissue (membrane preparation)
Assay: MOR agonist activity using [35S]GTPγS binding assay in striatal membranes
Format: biochemical
Details: for MOR agonist activity, [35S]GTPγS binding, FLNA-binding compound as agonist at 0.1 μM: 0.1 μM compound; for MOR agonist activity, [35S]GTPγS binding, FLNA-binding compound as agonist at 0.1 μM / MOR agonist activity, [35S]GTPγS binding, 1 μM + BFNA / MOR agonist activity, [35S]GTPγS binding, FLNA-binding compound as agonist at 1 μM: striatal membranes; for MOR agonist activity, [35S]GTPγS binding, FLNA-binding compound as agonist at 0.1 μM / MOR agonist activity, [35S]GTPγS binding, FLNA-binding compound as agonist at 1 μM: Series C-2; for MOR agonist activity, [35S]GTPγS binding, 1 μM + BFNA: 1 μM compound + 1 μM β-FNA (MOR antagonist); for % DAMGO + BFNA: 1 μM compound + BFNA relative to DAMGO + BFNA
Procedure: To assess the mu opiate receptor (MOR) agonist activity of positive compounds from the FLNA screening, compounds were tested in a [^35S]GTPγS binding assay using striatal membranes. […] This assay measures a functional consequence of receptor occupancy at one of the earliest receptor-mediated events. The assay permits for traditional pharmacological parameters of potency, efficacy and antagonist affinity, with the advantage that agonist measures are not subjected to amplification or other modulation that may occur when analyzing parameters further downstream of the receptor.
Thus, striatal tissue was homogenized in 10 volumes of ice cold 25 mM HEPES buffer, pH 7.4, which contained 1 mM EGTA, 100 mM sucrose, 50 μg/ml leupeptin, 0.04 mM PMSF, 2 μg/ml soybean trypsin inhibitor and 0.2% 2-mercaptoethanol. The homogenates were centrifuged at 800×g for 5 minutes and the supernatants were centrifuged at 49,000×g for 20 minutes.
The resultant striatal membrane preparation (200 μg) was admixed and maintained (incubated) at 30° C. for 5 minutes in reaction buffer as above that additionally contained 1 mM MgCl2 and 0.5 nM [^35S]GTPγS (0.1 μCi/assay, PerkinElmer Life and Analytical Sciences) in a total volume of 250 μl and continued for 5 minutes in the absence or presence of 0.1-10 μM of an assayed compound of interest. The reaction was terminated by dilution with 750 μl of ice-cold reaction buffer that contained 20 mM MgCl2 and 1 mM EGTA and immediate centrifugation at 16,000×g for 5 minutes.
Normal rabbit serum (1 μl) was added to 1 ml of lysate and incubated at 25° C. for 30 minutes. Nonspecific immune complexes were removed by incubation with 25 μl of protein A/G-conjugated agarose beads at 25° C. for 30 minutes followed by centrifugation at 5,000×g at 4° C. for 5 minutes. The supernatant was divided and separately incubated at 25° C. for 30 minutes with antibodies raised against Gαo proteins (1:1,000 dilutions).
The immunocomplexes so formed were collected by incubation at 25° C. for 30 minutes with 40 μl of agarose-conjugated protein A/G beads and centrifugation at 5,000×g at 4° C. for 5 minutes. The pellet was washed and suspended in buffer containing 50 mM Tris-HCl, pH 8.0, and 1% NP-40. The radioactivity in the suspension was determined by liquid scintillation spectrometry.

T1 sequence (P33535 whole entry): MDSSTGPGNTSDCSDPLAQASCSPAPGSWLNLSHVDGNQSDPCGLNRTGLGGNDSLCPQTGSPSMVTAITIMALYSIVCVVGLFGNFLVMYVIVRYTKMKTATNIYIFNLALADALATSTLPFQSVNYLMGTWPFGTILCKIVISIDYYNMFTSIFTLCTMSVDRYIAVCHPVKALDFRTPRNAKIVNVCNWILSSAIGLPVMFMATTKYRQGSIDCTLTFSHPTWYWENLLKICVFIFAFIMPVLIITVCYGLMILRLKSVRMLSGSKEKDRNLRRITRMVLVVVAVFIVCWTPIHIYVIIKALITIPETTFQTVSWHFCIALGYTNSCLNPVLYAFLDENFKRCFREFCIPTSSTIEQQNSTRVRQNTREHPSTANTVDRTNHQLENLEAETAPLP

| SMILES | MOR agonist activity, [35S]GTPγS binding, FLNA-binding compound as agonist at 0.1 μM [%] | MOR agonist activity, [35S]GTPγS binding, 1 μM + BFNA [%] | MOR agonist activity, [35S]GTPγS binding, FLNA-binding compound as agonist at 1 μM (1 μM compound) [%] | % DAMGO (0.1 μM) (Series C-1, 0.1 μM compound relative to DAMGO (0.1 μM)) [%] | % DAMGO + BFNA (Series C-1) [%] | % DAMGO (1 μM) (1 μM compound, relative to DAMGO) [%] |
| --- | --- | --- | --- | --- | --- | --- |
| CC(=O)c1ccc(S(=O)(=O)N2CCOC23CCN(CC2CC2)CC3)cc1 [Compound C0095M] | 189.1 | 107.7 | 224.6 | – | – | – |
| COc1ccc(S(=O)(=O)N2CCOC23CCCNC3)cc1 (stereo not shown) [Compound C0145M-3] | 193.0 | 87.0 | 289.2 | – | – | – |
| Cc1cccc(S(=O)(=O)N2CCC3(CC2)OCCN3S(=O)(=O)c2cccc(C)c2)c1 [Compound C0014] | – | – | – | 82.0 | – | – |
| CCN1CCC2(CC1)OCCN2S(=O)(=O)c1ccc(OC)cc1 [Compound C0089M] | 234.5 | 81.9 | 295.3 | – | – | – |
| COc1cccc(S(=O)(=O)N2CCC3(CC2)OCCN3S(=O)(=O)c2cccc(OC)c2)c1 [Compound C0002] | – | – | – | – | 6.1 | – |
| COc1ccc(S(=O)(=O)N2CCOC23CCN(CC2CC2)CC3)cc1 [Compound C0090M] | 237.0 | 41.0 | 341.0 | – | – | – |
| CC(=O)c1ccc(S(=O)(=O)N2C(Cc3c[nH]cn3)C(=O)NC23CCNCC3)cc1 (stereo not shown) [Compound C0119M] | 105.7 | 35.1 | 167.8 | – | – | 83.0 |
| CCc1ccc(S(=O)(=O)N2CCOC23CCN(CC2CC2)CC3)cc1 [Compound C0135M] | 161.3 | 113.3 | 310.1 | – | – | – |
| COc1ccc(S(=O)(=O)N2CCOC23CCN(C)CC3)cc1 [Compound C0088M] | 276.3 | 177.1 | 355.3 | – | – | – |
| CC(=O)c1ccc(S(=O)(=O)N2CCC3(CC2)NCCS3)cc1 [Compound C0060] | 166.5 | 143.9 | 218.9 | – | – | – |
| O=S(=O)(c1cccc2cccnc12)N1CCC2(CC1)OCCN2S(=O)(=O)c1cccc2cccnc12 [Compound C0143M] | 81.0 | 86.5 | 193.3 | – | – | – |
| CC(=O)c1ccc(S(=O)(=O)N2CCOC23CCNCC3)cc1 [Compound C0046] | 286.2 | 156.8 | 492.9 | – | – | – |
| O=S(=O)(c1ccc(OC(F)(F)F)cc1)N1CCC2(CC1)OCCN2S(=O)(=O)c1ccc(OC(F)(F)F)cc1 [Compound C0006] | – | – | – | – | 7.2 | – |
| CCN1CCC2(CC1)OCCN2S(=O)(=O)c1ccc(C(C)=O)cc1 [Compound C0094M] | 172.5 | 115.3 | 263.5 | – | – | – |
| COc1ccc(S(=O)(=O)N2CCOC23CCN(C(=O)OC(C)(C)C)CC3)cc1 [Compound C0043] | 175.4 | 83.3 | 242.6 | – | – | – |
